According to patent US10844044B2 (Vanderbilt University, priority 2018, dated 2020):
Read-outs that look alike come from different tables or passages of the source.

Columns and labels:
[1] = system: MV4:11 human cancer cell lines; assay: Anti-proliferative activity, CellTiter-Glo viability assay, 7 day protocol; type: cell-based; conditions: Homo sapiens, MV4-11, 168 h, MV4:11 cells, 7 day incubation, read-out: GI50 on cellular proliferation of MV4:11 human cancer cell lines
Outline: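 Luminescent CellTiter-Glo readout after 7-day compound exposure of MV4:11 cells plated at 3600 cells/ml (final DMSO 0.1%). GI50 derived from three biological × three technical replicates, reported as mean ± S.E.M.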

WDR5 = WDR5 (Homo sapiens (Human), UniProt P61964); assay: TR-FRET binding assay (displacement of 10mer-Thr-FAM probe from WDR5); conditions: read-out: Ki for Inhibition of WDR5 by TR-FRET assay
[2] = TR-FRET, 10mer-Thr-FAM probe, WDR5-His tag 2 nM, pH 7.0

Row | SMILES | GI50 [1] | Ki (WDR5; [2]) | Ki (WDR5)
1 | Cc1cc([C@@H](NC(=O)c2cc(Cn3cccc(F)c3=N)cc(-c3cccnc3C(F)(F)F)c2)C2CC2)ccc1F [Example 350, (S)—N-(Cyclopropyl(4-fluoro-3-methylphenyl)methyl)-3-((3-fluoro-2-iminopyridin-1(2H)-yl)methyl)-5-(2-(trifluoromethyl)pyridin-3-yl)benzamide] | 140 nM | 0.12 nM | –
2 | Cc1cc([C@@H](NC(=O)c2cc(Cn3ccoc3=N)cc(-c3cn(C(C)C)nc3C(F)(F)F)c2)C2CC2)ccc1F [Example 291, (S)—N-(Cyclopropyl(4-fluoro-3-methylphenyl)methyl)-3-((2-iminooxazol-3(2H)-yl)methyl)-5-(1-isopropyl-3-(trifluromethyl)-1H-pyrazol-4-yl)benzamide] | < 100 nM | < 0.1 nM | –
3 | COc1cc(CNC(=O)c2cc(CN3CCSC3=N)cc(-c3ccc(F)cc3C)c2)cc(OC)c1 [Example 308, N-(3,5-Dimethoxybenzyl)-4′-fluoro-5-((2-iminothiazolidin-3-yl)methyl)-2′-methyl-[1,1′-biphenyl]-3-carboxamide] | 630 nM | – | 0.45 nM
4 | Cc1cc(C)nc(CNC(=O)c2cc(Cn3ccn(C)c3=N)cc(-c3cccnc3C)c2)n1 [Example 42, N-((4,6-Dimethylpyrimidin-2-yl)methyl)-3-((2-imino-3-methyl-2,3-dihydro-1H-imidazol-1-yl)methyl)-5-(2-methylpyridin-3-yl)benzamide] | 28000 nM | 10 nM | –
5 | Cc1cc([C@@H](NC(=O)c2cc(CN3CCN(C)C3=N)cc(-c3cccnc3C(F)(F)F)c2)C2CC2)ccc1F [Example 143, (S)—N-(Cyclopropyl(4-fluoro-3-methylphenyl)methyl)-3-((2-imino-3-methylimidazolidin-1-yl)methyl)-5-(2-(trifluoromethyl)pyridin-3-yl)benzamide] | 170 nM | – | < 0.1 nM
6 | COc1cc([C@@H](NC(=O)c2cc(Cn3ccn(C)c3=N)cc(-c3cn(C)nc3C(F)(F)F)c2)C2CC2)ncc1F [Example 221, (S)—N-(Cyclopropyl(5-fluoro-4-methoxypyridin-2-yl)methyl)-3-((2-imino-3-methyl-2,3-dihydro-1-imidazol-1-yl)methyl)-5-(1-methyl-3-(trifluoromethyl)-1H-pyrazol-4-yl)benzamide] | < 100 nM | < 0.1 nM | –
7 | Cc1cc([C@@H](NC(=O)c2cc(Cn3ccn(C)c3=N)cc(-c3ncc(F)cc3C)c2)C2CC2)ccc1F [Example 66, (S)—N-(Cyclopropyl(4-fluoro-3-methylphenyl)methyl)-3-(5-fluoro-3-methylpyridin-2-yl)-5-((2-imino-3-methyl-2,3-dihydro-1H-imidazol-1-yl)methyl)benzamide] | 510 nM | 0.12 nM | –
8 | COc1cc(CNC(=O)c2cc(Cn3ccoc3=N)cc(-c3ncc(F)cc3C)c2)cc(OC)c1 [Example 238, N-(3,5-Dimethoxybenzyl)-3-(5-fluoro-3-methylpyridin-2-yl)-5-((2-iminooxazol-3(2H)-yl)methyl)benzamide] | 3800 nM | – | 2.9 nM
9 | Cc1cc(F)cc(F)c1-c1cc(Cn2ccn(C)c2=N)cc(C(=O)NCc2ccc(Cl)c(Cl)c2)c1 [Example 28, N-(3,4-Dichlorobenzyl)-2′,4′-difluoro-5-((2-imino-3-methyl-2,3-dihydro-1H-imidazo-1-yl)methyl)-6′-methyl-[1,1′-biphenyl]-3-carboxamide] | 1300 nM | 0.35 nM | –
10 | Cc1cc([C@@H](NC(=O)c2cc(Cn3cccc(C)c3=N)cc(-c3cccnc3C(F)(F)F)c2)C2CC2)ccc1F [Example 343, (S)—N-(Cyclopropyl(4-fluoro-3-methylphenyl)methyl)-3-((2-imino-3-methylpyridin-1(2H)-yl)methyl)-5-(2-(trifluoromethyl)pyridin-3-yl)benzamide] | 250 nM | 0.51 nM | –
11 | Cc1cc([C@@H](NC(=O)c2cc(Cn3ccn(C)c3=N)cc(-c3ccc(F)cc3C(F)F)c2)C2CC2)ccc1F [Example 154, (S)—N-(Cyclopropyl(4-fluoro-3-methylphenyl)methyl)-2′-(difluoromethyl)-4′-fluoro-5-((2-imino-3-methyl-2,3-dihydro-1H-imidazol-1-yl)methyl)-[1,1′-biphenyl]-3-carboxamide] | 120 nM | < 0.1 nM | –
12 | Cc1cc([C@@H](NC(=O)c2cc(Cn3ccn(C4CC4)c3=N)cc(-c3ccc(F)cc3C(F)F)c2)C2CC2)ccc1F [Example 158, (S)—N-(Cyclopropyl(4-fluoro-3-methylphenyl)methyl)-5-((3-cyclopropyl-2-imino-2,3-dihydro-1H-imidazol-1-yl)methyl)-2′-(difluoromethyl)-4′-fluoro-[1,1′-biphenyl]-3-carboxamide] | 170 nM | < 0.1 nM | –
13 | Cc1cc([C@@H](NC(=O)c2cc(Cn3ccn(C4CC4)c3=N)cc(-c3cn(C)nc3C(F)(F)F)c2)C2CC2)ncc1F [Example 204, (S)—N-(Cyclopropyl(5-fluoro-4-methypyridin-2-yl)methyl)-3-((3-cyclopropyl-2-imino-2,3-dihydro-1H-imidazol-1-yl)methyl)-5-(1-methyl-3-(trifluoromethyl)-1H-pyrazol-4-yl)benzamide] | < 100 nM | < 0.1 nM | –
14 | Cc1cc([C@@H](NC(=O)c2cc(Cn3ccn(C4CC4)c3=N)cc(-c3ccc(F)cc3OC(F)F)c2)C2CC2)ccc1F [Example 156, (S)—N-(cyclopropyl(4-fluoro-3-methylphenyl)methyl)-5-((3-cyclopropyl-2-imino-2,3-dihydro-1H-imidazol-1-yl)methyl)-2′-(difluoromethoxy)-4′-fluoro-[1,1′-biphenyl]-3-carboxamide] | 470 nM | < 0.1 nM | –
15 | Cc1cc([C@@H](NC(=O)c2cc(CN3CCN(C)C3=N)cc(-c3cn(C)nc3C(F)(F)F)c2)C2CC2)ccc1F [Example 203, (S)—N-(cyclopropyl(4-fluoro-3-methylphenyl)methyl)-3-((2-imino-3-methylimidazolidin-1-yl)methyl)-5-(1-methyl-3-(trifluoromethyl)-1H-pyrazol-4-yl)benzamide] | < 100 nM | – | < 0.1 nM
16 | Cc1cc([C@@H](NC(=O)c2cc(CN3CCOC3=N)cc(-c3ccc(F)cc3C(F)(F)F)c2)C2CC2)ccc1F [Example 285, (S)—N-(Cyclopropyl(4-fluoro-3-methylphenyl)methyl)-4′-fluoro-5-((2-iminooxazolidin-3-yl)methyl)-2′-(trifluoromethyl)-[1,1′-biphenyl]-3-carboxamide] | < 100 nM | < 0.1 nM | –
17 | CCn1cc(-c2cc(Cn3ccn(C4CC4)c3=N)cc(C(=O)N[C@H](c3ccc(F)c(C)c3)C3CC3)c2)c(C(F)(F)F)n1 [Example 160, (S)—N-(Cyclopropyl(4-fluoro-3-methylphenyl)methyl)-3-((3-cyclopropyl-2-imino-2,3-dihydro-1H-imidazol-1-yl)methyl)-5-(1-ethyl-3-(trifluoromethyl)-1H-pyrazol-4-yl)benzamide] | < 100 nM | < 0.1 nM | –
18 | Cc1cc([C@@H](NC(=O)c2cc(Cn3ccn(C)c3=N)cc(-c3cc(C(F)(F)F)nn3C)c2)C2CC2)ccc1F [Example 196, (S)—N-(Cyclopropyl(4-fluoro-3-methylphenyl)methyl)-3-((2-imino-3-methyl-2,3-dihydro-1H-imidazol-1-yl)methyl)-5-(1-methyl-3-(trifluoromethyl)-1H-pyrazol-5-yl)benzamide] | < 100 nM | < 0.1 nM | –
19 | N=C1OCCN1Cc1cc(C(=O)N[C@H](c2ccc(Cl)c(F)c2)C2CC2)cc(-c2ccc(F)cc2Cl)c1 [Example 301, (S)-2′-Chloro-N-((4-chloro-3-fluorophenyl)(cyclopropyl)methyl)-4′-fluoro-5-((2-iminooxazolidin-3-yl)methyl)-[1,1′-biphenyl]-3-carboxamide] | 270 nM | < 0.1 nM | –
20 | N=C1OCCN1Cc1cc(C(=O)N[C@H](c2ccc(Cl)c(Cl)c2)C2CC2)cc(-c2ncc(F)cc2C(F)(F)F)c1 [Example 284, (S)—N-(Cyclopropyl(3,4-dichlorophenyl)methyl)-3-(5-fluoro-3-(trifluoromethyl)pyridin-2-yl)-5-((2-iminooxazolidin-3-yl)methyl)benzamide] | 270 nM | 0.11 nM | –
21 | CC(=O)/N=c1\n(C)ccn1Cc1cc(C(=O)NCc2ccc(Cl)c(Cl)c2)cc(-c2ccc(F)nc2C)c1 [Example 121, (E)-3-((2-(acetylimino)-3-methyl-2,3-dihydro-1H-imidazol-1-yl)methyl)-N-(3,4-dichlorobenzyl)-5-(6-fluoro-2-methylpyridin-3-yl)benzamide] | 5900 nM | – | > 33 nM
22 | Cc1cc([C@@H](NC(=O)c2cc(Cn3ccn(C)c3=N)cc(-c3cn(C(C)C)nc3C(F)(F)F)c2)C2CC2)ccc1F [Example 193, (S)—N-(Cyclopropyl(4-fluoro-3-methylphenyl)methyl)-3-((2-imino-3-methyl-2,3-dihydro-1H-imidazol-1-yl)methyl)-5-(1-isopropyl-3-(trifluoromethyl)-1H-pyrazol-4-yl)benzamide] | < 100 nM | < 0.1 nM | –
23 | Cc1cc([C@@H](NC(=O)c2cc(CN3CCOC3=N)cc(-c3ccc(F)cc3C(F)(F)F)c2F)C2CC2)ccc1F [Example 283, (S)—N-(Cyclopropyl(4-fluoro-3-methylphenyl)methyl)-2,4′-difluoro-5-((2-iminooxazolidin-3-yl)methyl)-2′-(trifluoromethyl)-[1,1′-biphenyl]-3-carboxamide] | 120 nM | 0.02 nM | –
24 | Cc1cc([C@@H](NC(=O)c2cc(Cn3ccn(C4CC4)c3=N)cc(-c3cn(C(C)C)nc3C(F)(F)F)c2)C2CC2)ccc1F [Example 194, (S)—N-(Cyclopropyl(4-fluoro-3-methylphenyl)methyl)-3-((3-cyclopropyl-2-imino-2,3-dihydro-1H-imidazol-1-yl)methyl)-5-(1-isopropyl-3-(trifluoromethyl)-1H-pyrazol-4-yl)benzamide] | < 100 nM | < 0.1 nM | –
